Among the data in patent US20230165846A1, “HETEROCYCLIC GLP-1 AGONISTS” (Gasherbrum Bio, Inc., priority 2020, published 2023) are EC50 values, retold here.

Assay [1] addresses T1, GLP-1 Receptor (Homo sapiens, UniProt P43220). The assay can be described thus: GLP-1R agonist cAMP stimulation assay, Method 1 (DiscoverX CHO-K1, enzyme fragment complementation). It is filed as cell-based. The following applies: CHO-K1 cell line (DiscoverX) stably expressing GLP-1 Receptor; incubation 30 or 60 min at 37° C.; geometric mean where n>=2; read-out: GLP1R cAMP Stimulation DR: EC50 (nM) Method 1. The method, then: Activation of GLP-1 receptor is known to stimulate cyclic AMP (cAMP) production in cells which indicates primary coupling to the Gas subunit of the G protein heterotrimeric complex.
Method 1: To optimize functional activity directed toward Gas coupling, a CHO—K1 cell line developed by DiscoverX stably expressing the GLP-1 Receptor was used. Cells expressing GLP-1 receptor were plated in a 384-well microtiter plates and incubated overnight at 37° C. with 5% CO2 to allow the cells to attach and grow. Media was then aspirated from the cells and replaced with 15 uL 2:1 Hanks Balanced Salt Solution (HBSS)/10mM Hepes : cAMP XS+ Ab reagent. Five microliters (5 uL) of previously generated compound sample stocks at 4x final concentration in assay buffer were then added to the cells and allowed to incubate at 37° C. for 30 or 60 minutes.
After incubation the assay signal was generated using enzyme fragment complementation (EFC). In EFC, the enzyme B-galactosidase is split into two complementary portions (EA and ED). The fragment ED is fused to cAMP and in the assay format competes with endogenous cAMP for binding to a cAMP specific antibody. Activated β—Gal is formed when exogenous EA fragment binds to free ED-cAMP (not bound to cAMP specific antibody). Activated enzyme levels are detected through conversion of β-gal chemiluminescent substrate which generates a detectable luminescence signal and read on standard microtiter plate.
The methodology for detection of cAMP using EFC requires incubation with 20uL of cAMP XS+ ED/CL lysis cocktail for one hour followed by incubation with 20 uL cAMP XS+ EA reagent for three hours at room temperature. Microplates were read following signal generation with a PerkinElmer Envision instrument utilizing chemiluminescent signal detection. Compound activity was analyzed using CBIS data analysis suite (ChemInnovation, CA). Percentage activity was calculated using the following formula:
(§1) %Activity = 100% x (mean RLU of test sample - mean RLU of vehicle control) / (mean RLU of MAX control - mean RLU of vehicle control))
(§2) This is done to account for the lognormal distribution of multiple estimates of EC50 values. In practice geometric mean is calculated by first generating log values of EC50, averaging replicates and then calculating the antilog of the average.

The target of assay [2] is T1, GLP-1 Receptor. The assay can be described thus: GLP-1R agonist cAMP stimulation assay, Method 2 (HDB HEK293/GLP1R/CRE-LUC, Cisbio cAMP dynamic 2 kit). As to conditions: HEK293/GLP1R/CRE-LUC cells (HD Biosciences); 30 min at 37° C.; 0.5 mM IBMX, 0.1% BSA; geometric mean where n>=2; read-out: GLP1R cAMP Stimulation DR: EC50 (nM) Method 2 (HDB). It is filed as cell-based. As for the experimental part: Method 2: Activation of GLP-1 receptor is known to stimulate cyclic AMP (cAMP) production in cells which indicates primary coupling to the Gas subunit of the G protein heterotrimeric complex.
To optimize functional activity directed toward Gas coupling, a HEK293/CRE-Luc cell line developed by HDB stably expressing the GLP-1 Receptor was used. 200× concentration of compound working solutions were prepared (Agilent Technologies Bravo) with ½log serial dilution in 384-well Echo LDV plate (Labcyte, Cat# LP-0200). […] Seal the plate and incubate at 37° C. with 5% CO2 for 30 min.
After incubation the cAMP assay signal was generated using cAMP dynamic 2 Kit (Cisbio). 5 µL cAMP-d2 working solution was added to each well, followed with 5 µL Anti-cAMP antibody-cryptate working solution added to each well using ThermoFisher Multidrop Combi. Incubate at room temperature for 1 hour protected from light.
as §1, §2

T1 sequence (P43220 24-463): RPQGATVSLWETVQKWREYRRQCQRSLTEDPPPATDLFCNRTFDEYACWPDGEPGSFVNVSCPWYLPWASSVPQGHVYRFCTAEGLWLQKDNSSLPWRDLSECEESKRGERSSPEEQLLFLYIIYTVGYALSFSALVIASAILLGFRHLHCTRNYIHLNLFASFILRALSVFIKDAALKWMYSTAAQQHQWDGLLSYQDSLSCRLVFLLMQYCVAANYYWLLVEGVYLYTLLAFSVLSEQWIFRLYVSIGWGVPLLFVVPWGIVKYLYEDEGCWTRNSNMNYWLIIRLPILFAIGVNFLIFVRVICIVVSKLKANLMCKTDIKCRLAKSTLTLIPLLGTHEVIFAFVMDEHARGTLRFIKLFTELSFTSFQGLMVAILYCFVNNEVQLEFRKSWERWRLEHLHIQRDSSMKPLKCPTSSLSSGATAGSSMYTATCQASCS

For `O=C(O)c1ccc2nc(Cc3ccc(-c4cccc(OCc5ccc(Cl)cc5F)n4)cc3)n(C[C@@H]3CCO3)c2n1` [Compound 120aw, 2-[[4-[6-[(4-chloro-2-fluoro-phenyl)methoxy]-2-pyridyl]phenyl]methyl]-3-[[(2S)-oxetan-2-yl]methyl]imidazo[4,5-b]pyridine-5-carboxylic acid], the concentration giving a half-maximal response (EC50) at GLP-1 Receptor [1] is < 0.051 nM; at GLP-1 Receptor [2] it was 0.017 nM.

One may read the EC50 as the concentration that produces a half-maximal response.
